Reference: patent US20040023295A1, “Methods and systems for analyzing complex biological systems” (priority 2001, published 2004)

Columns and labels:
Arabidopsis thaliana [1] = assay: Biochemical (metabolite) profiling by LC-MS and GC-MS of sprayed Arabidopsis (MOA1); conditions: within one hour after spraying
Arabidopsis thaliana [2] = assay: Phenotypic profiling of Arabidopsis sprayed with unknown and commercial herbicides (MOA1); format: in vivo; conditions: Ward's method

## CC(C)OC(=O)Nc1cccc(Cl)c1 [Chloropropham]
Arabidopsis thaliana [1]
  stress related (commonly regulated) metabolites: neither butylate nor chlorpropham treatment resulted in many changes
Arabidopsis thaliana [2]
  phenotype / hierarchical clustering of the eleven phenotypic characteristics: neither showed a strong herbicidal phenotype
